The structures appear in SMILES notation.

Consider four compounds from patent publication US20090053741A1 (priority 2005, published 2009).

One experiment concerns nitric oxide synthase. The note with it: cited from earlier work; for inhibition of NOS (in words): background statement.
The next experiment has as its system DDAH. The experiment can be described thus: ADMA binding to DDAH (initial studies; equilibrium dialysis and calorimetry).
In experiment [1] the target is T1, bsNOS fragment (bacillus subtilis nitric oxide synthase oxygenase domain) (Bacillus subtilis, UniProt O34453).
T1 construct: made in house
T1 sequence (O34453 other isoform, or with tags, fused parts or gaps with the stated changes): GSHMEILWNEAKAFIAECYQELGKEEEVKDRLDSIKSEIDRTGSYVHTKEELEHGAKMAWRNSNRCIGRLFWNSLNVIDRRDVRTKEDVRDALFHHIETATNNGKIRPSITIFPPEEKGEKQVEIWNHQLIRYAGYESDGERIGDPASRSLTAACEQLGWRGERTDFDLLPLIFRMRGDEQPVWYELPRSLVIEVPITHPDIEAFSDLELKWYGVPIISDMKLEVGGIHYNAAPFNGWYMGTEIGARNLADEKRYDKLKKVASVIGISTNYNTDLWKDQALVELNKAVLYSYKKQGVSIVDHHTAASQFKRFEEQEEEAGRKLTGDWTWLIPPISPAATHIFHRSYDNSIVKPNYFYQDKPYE
As to the kind of experiment: bsNOS binding to [14C]L-NMMA, PVDF filters with rapid washes. The note with it: L-NMMA 1 mM, FIG. 3. The protocol:
(§1) A=Control and B=excess L-NMMA.
A modified method previously described for binding [3H]nitroarginine to mammalian NOS was used to ensure rapid washes of the bsNOS fragment complexes and ligand to reduce time for dissociation (Liu Q and Gross S S, Methods Enzymol. 1996; 268:311-24). [^14C]L-NMMA ([…] −20000 counts total) was incubated with the bsNOS fragment ([…]) in assay buffer containing: 50 mM Tris pH 7.6; 50 uM BH4, 0.5 mM DTT. Reactants were incubated for 15 min at room temperature and NOS-bound [^14C]L-NMMA was separated from free [^14C]L-NMMA using PVDF filters and 3×1 ml rapid washes in cold Tris pH 7.6. Background was determined by the addition of 1 mM L-NMMA to bsNOS in assay buffer. Filters were added to 5 ml scintillation cocktail and counted in scintillation counter (Beckmann).

Another experiment deals with T2, iNOS (Mus musculus, UniProt P29477).
T2 sequence (P29477 1-1144): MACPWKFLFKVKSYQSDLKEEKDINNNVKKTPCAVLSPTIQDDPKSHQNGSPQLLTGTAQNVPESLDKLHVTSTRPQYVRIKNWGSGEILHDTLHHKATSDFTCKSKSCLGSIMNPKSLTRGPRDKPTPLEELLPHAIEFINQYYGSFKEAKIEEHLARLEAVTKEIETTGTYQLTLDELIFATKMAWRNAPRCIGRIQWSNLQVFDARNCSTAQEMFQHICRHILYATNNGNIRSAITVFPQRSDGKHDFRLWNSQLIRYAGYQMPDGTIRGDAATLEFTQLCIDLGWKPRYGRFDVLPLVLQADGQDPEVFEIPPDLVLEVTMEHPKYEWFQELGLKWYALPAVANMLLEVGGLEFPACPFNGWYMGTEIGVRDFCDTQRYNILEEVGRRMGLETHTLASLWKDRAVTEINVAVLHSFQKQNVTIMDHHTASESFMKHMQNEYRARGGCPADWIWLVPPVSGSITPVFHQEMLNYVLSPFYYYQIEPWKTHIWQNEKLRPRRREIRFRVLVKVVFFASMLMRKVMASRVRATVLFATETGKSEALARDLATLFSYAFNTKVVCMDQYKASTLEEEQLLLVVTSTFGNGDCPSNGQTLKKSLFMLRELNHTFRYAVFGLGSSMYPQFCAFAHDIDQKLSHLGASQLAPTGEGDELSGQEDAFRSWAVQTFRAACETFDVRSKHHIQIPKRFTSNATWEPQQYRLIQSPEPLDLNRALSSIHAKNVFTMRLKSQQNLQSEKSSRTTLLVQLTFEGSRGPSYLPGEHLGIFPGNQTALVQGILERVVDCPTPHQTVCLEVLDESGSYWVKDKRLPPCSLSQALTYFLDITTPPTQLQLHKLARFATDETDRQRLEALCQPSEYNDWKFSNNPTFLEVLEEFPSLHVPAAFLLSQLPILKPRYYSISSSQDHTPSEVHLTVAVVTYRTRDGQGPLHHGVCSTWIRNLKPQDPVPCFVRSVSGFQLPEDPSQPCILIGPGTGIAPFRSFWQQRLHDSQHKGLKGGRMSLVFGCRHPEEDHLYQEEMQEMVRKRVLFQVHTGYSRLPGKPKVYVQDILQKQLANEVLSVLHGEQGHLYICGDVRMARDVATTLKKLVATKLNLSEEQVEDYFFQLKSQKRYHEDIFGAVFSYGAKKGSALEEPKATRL
The experiment can be described thus: [14C]L-NMMA binding to lysates of cytokine-stimulated J774 cells (iNOS lysate), filter assay. As to conditions: excess 1000-fold L-NMMA, FIG. 1, preliminary. The protocol: A=J774 stimulated, B=J774 stimulated+L-NMMA, C=control and D=control+L-NMMA.
Macrophages (J774 cells) were stimulated with a cytokine cocktail (LPS/IFN/TNF) for 24 h, to induce iNOS expression, and cell lysates were collected. […] Low molecular weight molecules were removed from lysates using 30000 MW cut-off filters. Lysates were incubated on 3000 MW filters with [^14C]L-NMMA for 15 min ([…] L-NMMA), washed 3× with cold TRIS buffer and filters counted.

The target in experiment [2] is T1, bsNOS fragment (bacillus subtilis nitric oxide synthase oxygenase domain). The experiment can be described thus: [14C]L-NMMA binding to bsNOS fragment on 30000 MW cut off filters. As to conditions: 1000-fold excess unlabelled L-NMMA, FIG. 2, preliminary. The protocol: as §1
A bacillus subtilis nitric oxide synthase oxygenase domain (“fragment”) was PCR amplified from genomic DNA with Nde1 and BamH1 sites added at the 5′ and 3′ ends respectively and cloned into pET15b vector. The bsNOS fragment corresponded to SEQ ID NO: 2 and was purified as previously described (Pant et al., Biochemistry; 2002; 41:11071-11079).
[^14C]L-NMMA (3.75 nmol) was incubated with the bsNOS fragment ([…]) on 30000 MW cut off filters in the presence and absence (Control) of 1000-fold excess unlabelled L-NMMA.

Excerpt for DDAH: Secondly, the researchers tried to improve the binding of ADMA to DDAH through mutagenesis. Three more mutations were generated in E114 and around this residue. These were E114D, E114D+A115G, L18H (residue in the loop) and P80A. […] Other mutations around the active site were also generated: L161F, G116A, G116V and G116T.
Thirdly, the researchers tried to calculate a Kd for ADMA of DDAH using nuclear magnetic resonance imaging using the C249S or H162A mutant. […] Fourthly, the researchers tried a fluorophore (fluoresceine 5 maleimide or acrylodan) approach to measure the Kd for ADMA. […] Finally, the researchers generated four mutations with tryptophan: V15W and D16W (in the loop) as well as F58W and E90W (close to the active site). These four residues move in the NMR spectrum when inhibitors bind to the protein.

As to `CN(C)C(=N)NCCCC(N)C(=O)O` (stereo not drawn) [ADMA, asymmetric dimethylarginine], the “inhibition of NOS (in words)” value with nitric oxide synthase was “equipotent”. The “saturation of DDAH in calorimetry experiments” value in the experiment on DDAH (inactive mutations C249S, H162A, E114Q, very high concentrations of ADMA (10 mM)) is on record as “saturation was never reached”. The “concentrations necessary to get binding to DDAH” value in the experiment with DDAH (initial studies) is reported as “millimolar concentrations”.

With `CNC(=N)NCCC[C@H](N)C(=O)O` [L-NMMA, N^G-monomethyl-L-arginine], the “inhibition of NOS (in words)” value in the experiment with nitric oxide synthase is recorded as “equipotent”. In experiment [1], the “[14C]L-NMMA binding in the presence of unlabelled ligand” value is given as “reduced to background”. The “competition of [14C]L-NMMA binding by unlabelled ligand” value (at iNOS; in experiment [2]) was “competed out” in each case.

As for `CN=C(NC)NCCC[C@H](N)C(=O)O` [SDMA, symmetric dimethylarginine], the “inhibition of NOS (in words)” value with nitric oxide synthase is given as “does not inhibit NOS”.

A word on the Km: it is the substrate concentration at which the rate is half of its maximum. As to `N=C(N)NCCC[C@H](N)C(=O)O` [arginine], the Michaelis constant (Km) in the experiment with nitric oxide synthase (nitric oxide synthase, the 3 enzymes, read-out: Km for arginine) was 7 to 19 µM.
